Experimental data reported in article PMC8881610 (Nature Communications, 2022).
Numbering of substitutions follows the chain as printed.

Key:
Experiment in all cases: cAMP accumulation assay (LANCE Ultra cAMP kit), GIPR WT, mutant or modified constructs
Type in all cases: cell-based
Parameters in all cases: acylated tirzepatide to the full-length or modified; Flag; expressed in transfected cells; host or cells: HEK293T
GIPR [1] = target: T1, GIPR (Homo sapiens, UniProt P48546, D191A); conditions: HEK-293T, GIPR D191A; HEK293T
T1 sequence (P48546 22-466 D191A): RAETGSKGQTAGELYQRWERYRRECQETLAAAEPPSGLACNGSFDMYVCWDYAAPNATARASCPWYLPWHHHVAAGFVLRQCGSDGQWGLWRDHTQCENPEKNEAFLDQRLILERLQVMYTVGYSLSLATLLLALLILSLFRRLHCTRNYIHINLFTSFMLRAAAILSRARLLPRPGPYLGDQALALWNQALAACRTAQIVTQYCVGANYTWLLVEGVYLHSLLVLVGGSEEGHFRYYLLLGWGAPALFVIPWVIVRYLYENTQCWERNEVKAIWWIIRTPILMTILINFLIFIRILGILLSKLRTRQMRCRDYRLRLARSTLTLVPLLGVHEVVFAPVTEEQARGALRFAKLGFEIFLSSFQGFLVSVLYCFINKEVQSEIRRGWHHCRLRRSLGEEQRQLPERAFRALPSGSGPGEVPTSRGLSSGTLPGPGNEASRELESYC
In short: (§1)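 HEK293T cells transiently transfected with human GIPR WT or mutant constructs (pcDNA3.1), used after 24 h. The cells were stimulated with peptide agonists for 40 min at RT in HBSS with 5 mM HEPES, 0.1% BSA or casein, and 0.5 mM IBMX. cAMP was read by LANCE Ultra TR-FRET (Eu-cAMP tracer/ULight anti-cAMP, 1 h RT, 620/650 nm).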

GIPR [2] = target: T2, GIPR (Homo sapiens, UniProt P48546, Y141A); conditions: GIPR Y141A, HEK293T
T2 sequence (P48546 22-466 Y141A): T1 sequence (P48546 22-466 D191A) with Y120A, A170D
In short: as §1

GIPR [3] = target: T3, GIPR (Homo sapiens, UniProt P48546, R192A); conditions: GIPR R192A, HEK293T
T3 sequence (P48546 22-466 R192A): T1 sequence (P48546 22-466 D191A) with A170D, R171A
In short: as §1

[4] = read-out: cAMP pEC50 (converted)

CCCCCCCCCCCCCCCC(=O)N[C@@H](CCC(=O)NCCCC[C@H](NC(=O)[C@H](CC(=O)O)NC(=O)[C@H](CO)NC(=O)[C@@H](NC(=O)[C@H](Cc1ccccc1)NC(=O)[C@@H](NC(=O)CNC(=O)[C@H](CCC(N)=O)NC(=O)C(C)(C)NC(=O)[C@@H](N)Cc1c[nH]cn1)[C@@H](C)O)[C@@H](C)O)C(=O)N[C@@H](CO)C(=O)N[C@@H](CCCCN)C(=O)N[C@@H](Cc1ccc(O)cc1)C(=O)N[C@@H](CC(C)C)C(=O)N[C@@H](CC(=O)O)C(=O)N[C@@H](CCC(=O)O)C(=O)N[C@@H](CCCNC(=N)N)C(=O)N[C@@H](C)C(=O)N[C@@H](C)C(=O)N[C@@H](CCC(N)=O)C(=O)N[C@@H](CC(=O)O)C(=O)N[C@@H](Cc1ccccc1)C(=O)N[C@H](C(=O)N[C@@H](CCC(N)=O)C(=O)N[C@@H](Cc1c[nH]c2ccccc12)C(=O)N[C@@H](CC(C)C)C(=O)N[C@@H](CC(C)C)C(=O)N[C@@H](CC(=O)O)C(=O)NCC(=O)NCC(=O)N1CCC[C@H]1C(=O)N[C@@H](CO)C(=O)N[C@@H](CO)C(=O)NCC(=O)N[C@@H](C)C(=O)N1CCC[C@H]1C(=O)N1CCC[C@H]1C(=O)N1CCC[C@H]1C(=O)N[C@@H](CO)C(N)=O)C(C)C)C(=O)O [Peptide 20]
Emax (GIPR [1]): 51.7 ± 5.96% | EC50 (GIPR [2]; [4]): 3.72 nM | Emax (GIPR [2]; HEK-293T): 75.1 ± 1.79% | EC50 (GIPR [3]; [4]): 0.0302 nM | Emax (GIPR [3]; HEK-293T): 101 ± 1.91%
